Test results published in US20080090893A1, “Medicinal Composition for Prevention of Transition to Operative Treatment for Prostatic Hypertrophy” (Kissei Pharmaceutial Co., Ltd., priority 2004, published 2008).
Where a name gives a salt, the structure may show the parent alone.

Legend:
[1] = test system: patients of benign prostatic hyperplasia who are subject to surgical therapy (overall severity severe); experiment: Placebo-controlled, parallel groups-comparing double blind trial, 12 weeks oral administration (I-PSS total score, QOL score); type: in vivo
Description: Based on the results of a placebo-controlled, parallel groups-comparing double blind trial carried out in patients of benign prostatic hyperplasia, clinical effects of silodosin and tamsulosin hydrochloride in patients who are subject to surgical therapy were evaluated. As the patients who are subject to surgical therapy, patients whose overall severity before administration was “severe” based on the criteria for judging overall severity (Non-patent Reference 3) were extracted.
Objects: 147 patients who are subject to surgical therapy for benign prostatic hyperplasia
Administration method: oral administration for 12 weeks
Administered groups: Silodosin group (4 mg silodosin/once, twice a day, 63 patients), Tamsulosin group (0.2 mg tamsulosin hydrochloride, once a day, 55 patients) and Placebo group (placebo drug, 29 patients).
Primary endpoints: I-PSS total score, QOL score
Criteria for judging overall severity: in the severity of respective judging items shown in Table 1, the overall severity is regarded as “severe” when “severe” is present in 2 items or more. In this connection, the Qmax in the table means maximum flow rate (mL/second), RU means residual urine volume (mL) and PV means estimated prostate volume (mL) by ultrasonic tomography.
I-PSS items questioned • (1) Sensation of residual urine
The scores of (1) to (6) are as follows.
Not at all: 0 point, less than 1 time in 5: 1 point, less than 1 time in 2: 2 points, about 1 time in 2: 3 points, more than 1 time in 2: 4 points, almost always: 5 points. • (7) Nocturia
None: 0 point, 1 time: 1 point, 2 times: 2 points, 3 times: 3 points, 4 times: 4 points, 5 times or more: 5 points.
Very satisfied 0 point, satisfied: 1 point, generally satisfied: 2 points, neither satisfied nor unsatisfied: 3 points, a little unsatisfied: 4 points, unsatisfied: 5 points, very unsatisfied: 6 points.
Regarding the case of patients whose overall severity before administration was severe based on the criteria for judging overall severity (Non-patent Reference 3), changes in I-PSS total score and QOL score at the final evaluation were compared. The results are shown in Table 2 and Table 3, respectively.
Next, the effect of each administration group to improve the severity of I-PSS total score was evaluated in the patients of benign prostatic hyperplasia whose overall severity before administration was severe.

[2] = test system: patients of benign prostatic hyperplasia who are subject to surgical therapy (overall severity moderate and severe); experiment: Long-term administration test, 52 weeks (maximum flow rate Qmax); type: in vivo; settings: 4 mg silodosin twice a day oral
Description: Based on the results from a long-term administration test in patients of benign prostatic hyperplasia, effects of silodosin on objective symptoms of patients who are subject to surgical therapy were examined. As the patients who are subject to surgical therapy, patients whose overall severities before administration were “moderate” and “severe” according to the criteria for judging overall severity described in the above Table 1 were extracted.
Objects: 229 patients who are subject to surgical therapy for benign prostatic, hyperplasia
Analyzed groups: 101 severe patients (reduced to 2 mg/once in 9 cases among them), 128 moderate patients (reduced to 2 mg/once in 17 cases among them)

[3] = severity of I-PSS total score, severe patients
[4] = overall severity before administration severe, oral, silodosin 4 mg twice a day, tamsulosin hydrochloride 0.2 mg once a day

Row | Structure (SMILES) | Severity of subjective symptoms at the end, Mild (0-7), number of patients [1, 3] | Severity of subjective symptoms at the end, Moderate (8-19), % of patients [1, 3] | Severity of subjective symptoms at the end, Moderate (8-19), number of patients [1, 3] | Severity of subjective symptoms at the end, Severe (20-35), % of patients [1, 3] | Severity of subjective symptoms at the end, Severe (20-35), number of patients [1, 3] | Maximum flow rate (Qmax), change after 52 weeks (mean ± SD) ([2]; Moderate group) | Maximum flow rate (Qmax), change after 52 weeks (mean ± SD) ([2]; Moderate group, listed as silodosin) | Maximum flow rate (Qmax), change after 52 weeks (mean ± SD) ([2]; Severe group) | Maximum flow rate (Qmax), change after 52 weeks (mean ± SD) ([2]; Severe group, listed as silodosin) | Change in I-PSS at the end Mean ± standard deviation [1, 4] | Change in QOL at the end Mean ± SD [1, 4] | Severity of subjective symptoms at the end, Mild (0-7), % of patients [1, 3]
1 | C[C@H](Cc1cc2c(c(C(N)=O)c1)N(CCCO)CC2)NCCOc1ccccc1OCC(F)(F)F [Silodosin, (−)-1-(3-hydroxypropyl)-5-((2R)-2-{[2-({2-[(2,2,2-trifluoroethyl)oxy]phenyl}oxy)ethyl]amino}propyl)-2,3-dihydro-1H-indole-7-carboxamide] | 24 | (52.4%) | 33 | (9.5%) | 6 | 2.3 ± 5.3 mL/s | 2.3 mL/s | 3.2 ± 4.9 mL/s | 3.2 mL/s |  |  | 
2 | CCOc1ccccc1OCCN[C@H](C)Cc1ccc(OC)c(S(N)(=O)=O)c1 [Tamsulosin, tamsulosin hydrochloride] | 12 | (61.8%) | 34 | (16.4%) | 9 |  |  |  |  | −8.6 ± 6.2^3) N.S. | −1.5 ± 1.3^3) N.S. | (21.8%)
